# From patent US7629318B2, “Immunosuppressant compounds, methods and uses related thereto” (priority 2002, dated 2009)
# Where “and” joins values, the source holds several entries; their conditions need not be identical. Equal values may be shown once. Read-outs that look alike come from different tables or passages of the source. Square brackets hold non-standard residues; d marks the D form. Peptide text beside a SMILES is read from it. * marks the point of attachment. N(Me)CH2CH2Ph = CN(CCc1ccccc1)*; Tic = O=C(O)[C@@H]1Cc2ccccc2CN1; Cha = N[C@@H](CC1CCCCC1)C(=O)O; X4 = OCCOCCN(CCc1ccccc1)*; Nle = CCCC[C@H](N)C(=O)O; X2 = OCCOCCN(Cc1ccccc1)*; X6 = OCCN(CCc1ccccc1)*
# How the values were obtained:
# [1] = molecular target: DR1 (DRA1*0101 DRB1*0101) (Homo sapiens, UniProt P01903+P01911, A100R/D57E/F55L/F60I/F76Y/I96L/L162R/M171V/P40L/Q125E/R42F/V115G/Y59C); assay: Competitive binding to MHC-II protein DR1; conditions: Protein binding IC50 (nM) 0101, 0101
# Procedure: (§1) Interaction mixtures lacking the peptidomimetic compound and both peptide mimetic compound and MHC-II were used as positive and negative controls, respectively. All interaction mixtures were set up in duplicates and were incubated for 16 hours at room temperature.
# (§2) After washing with PBS, 60 μl of the MHC-II-compound interaction mixtures were transferred from the interaction plate to the appropriate wells of the capture plate and incubated for 2 h at 4° C. The wells were washed six times with 200 μl/well of cooled (4 to 8° C.) 1×DELFIA wash (Wallac-ADL-GmbH, Freiburg), incubated with 100 μl of cooled Europium-streptavidin conjugate (Wallac-ADL-GmbH, Freiburg; diluted 1/1000 with DELFIA assay buffer) for 30 minutes at 4° C., again washed six times with cooled 1×DELFIA wash and, finally, incubated with 200 μl cooled DELFIA enhancement solution (Wallac-ADL-GmbH, Freiburg) for one hour at room temperature before reading the time-resolved europium fluorescence at λex Eu^3+: 340 nm and λem Eu^3+: 613 (615) nm (Wallac Victor^2 1420 Multilabel Counter, Wallac-ADL-GmbH, Freiburg).
# [2] = molecular target: DR4Dw14 (DRA1*0101 DRB1*0404) (Homo sapiens, UniProt P01903+P01911, A100R/A169T/F76Y/I96L/K127E/L162R/M171V/N62H/P40V/Q125Y/R42H/S133A/S149N/S66Y/V209L/W38E); assay: Competitive binding to MHC-II protein DR4Dw14
# Procedure: as §1, §2
# [3] = Stability of compounds in rat blood plasma; type: in vitro ADME
# Procedure: (§3) The stability of the peptidomimetic compounds was determined in rat (Charles River Laboratories, Sulzfeld), mouse (Charles River Laboratories, Sulzfeld) and human (Bayerisches Rotes Kreuz, München) blood plasma (E. R. Garrett and M. R. Gardner, J Pharmaceutical Sciences 71 (1982) 14-25).
# (§4) Compound stock solutions were diluted into blood plasma to give a final compound concentration of 5 μM and the mixtures were incubated at 37° C. At 0, 6 and 24 hours 1 ml samples were drawn and the plasma proteins were precipitated by the addition of 3 ml acetonitrile p.a. and whirlmixing. The precipitate was pelleted by centrifugation at 2000 g for 5 minutes. The supernatant was evaporated off to dryness and the residue was reconstituted in 400 μl 50% acetonitrile, 0.1% TFA in water.
# (§5) PBS controls were prepared for unstable compounds accordingly.
# [4] = Stability of compounds in mouse blood plasma; type: in vitro ADME
# Procedure: as §3, §4, §5
# [5] = Stability of compounds in human blood plasma; type: in vitro ADME
# Procedure: as §3, §4, §5
# [6] = molecular target: Cathepsin D (EC 3.4.23.5 from bovine spleen) (Bos taurus, UniProt P80209)
# Procedure: The stability of the peptidomimetic compounds towards lysosomal degradation was examined by incubation with Cathepsin B1 (EC 3.4.22.1 from bovine spleen; Sigma-Aldrich, Taufkirchen; dissolved at 10000 U/l in ddH2O) and D (EC 3.4.23.5 from bovine spleen; Sigma-Aldrich, Taufkirchen; dissolved at 10000 U/l in ddH2O) for four hours at 37° C. using a compound concentration of 50 μM and an enzyme/substrate ratio of 0.4 U/μmol. The samples contained 25 ppm 4-isopropyl benzyl alcohol (IPBA; Sigma-Aldrich, Taufkirchen) as internal standard.
# Assay buffer was prepared by adding 35 μl of a 1% IPBA in DMSO solution and 28 μl of a 10000 U/l Cathepsin B1 or Cathepsin D stock solution to 14 ml of 100 mM sodium acetate, 1 mM EDTA, 1 mM DTT, pH 5.00 or 100 mM sodium acetate, pH 4.50, respectively. 8.8 μl of a 5 mM (or 4.4 μl of a 10 mM) compound stock solution (in 10% DMSO/water) were placed into a 1.5 ml Eppendorf tube. The reaction was started by adding 875 μl fully supplemented assay buffer to each tube, whirlmixing and incubation at 37° C. At 0 and 4 hours 400 μl samples were taken and the enzyme was inactivated by addition of 40 μl […] TFA aq. The samples were kept frozen at −20° C. until analysis by RP-HPLC (200 μl injection volume; Nucleosil 100-5 C18, 12.5×4.6 cm; Gradient: 20-50% acetonitrile in 30 min).
# Compounds co-eluting with the internal standard during RP-HPLC analysis were tested without the standard as Example 16.
# [7] = molecular target: Cathepsin B1 (EC 3.4.22.1 from bovine spleen) (Bos taurus, UniProt P07688); conditions: for Stability (Arbitrary units) Cath B 4 h: Cathepsin B
# [8] = molecular target: DR4Dw4 (DRA1*0101 DRB1*0401) (Homo sapiens, UniProt P01903+P01911, A100K/A169T/F76Y/I96L/K127E/L162R/M171V/N62H/P40V/Q125Y/R42H/S133A/S149N/S66Y/V115G/V209L/W38E); assay: Competitive binding to MHC-II protein DR4Dw4
# Procedure: as §1, §2
# [9] = tested on: T-cell proliferation, DR14-LN; conditions: for Immunsupressive assays DR14-LN (Max) % Inhibition: maximal inhibition; for IC50: read-out: Immunsupressive assays DR14-LN (IC50)
# [10] = 0404, read-out: Protein binding IC50 (nM) 0404
# [11] = within 4 hours, 37° C., enzyme activity control
SMILES,IC50 [1],"IC50 [2, 10] [nM]",Stability (Arbitrary units) Rat 6 h [3] [Arbitrary units],Stability (Arbitrary units) Rat 24 h [3] [Arbitrary units],Stability (Arbitrary units) Mouse 6 h [4] [Arbitrary units],Stability (Arbitrary units) Mouse 24 h [4] [Arbitrary units],Stability (Arbitrary units) Human 6 h [5] [Arbitrary units],Stability (Arbitrary units) Human 24 h [5] [Arbitrary units],Stability (Arbitrary units) Cath D 4 h [6] [Arbitrary units],Stability (Arbitrary units) Cath B 4 h [7] [Arbitrary units],IC50 [8] [µM],also measured
"CSCC[C@H](NC(=O)[C@@H]1Cc2ccccc2CN1C(=O)[C@H](CCCNC(=N)N)NC(=O)[C@H](CC1CCCCC1)NC(C)=O)C(=O)N(C)CCc1ccccc1 [Compound P84, Ac-Cha-Arg-Tic-Met-N(Me)CH2CH2Ph] (Ac-[Cha]R[Tic]M-{N(Me)CH2CH2Ph})",900 nM,14000,104,99,111,53,131,131,101,69,,
"CCCC[C@H](NC(=O)[C@@H]1Cc2ccccc2CN1C(=O)[C@H](CCCNC(=N)N)NC(=O)[C@H](CC1CCCCC1)NC(C)=O)C(=O)N(CCO)CCc1ccccc1 [Compound P81, Ac-Cha-Arg-Tic-Nle-N(CH2CH2OH)CH2CH2Ph] (Ac-[Cha]R[Tic][Nle]-X6)",3300 nM,20000,88,76,107,70,104,109,99,99,22,
"CCCC[C@H](NC(=O)[C@@H]1Cc2ccccc2CN1C(=O)[C@H](CCCNC(=N)N)NC(=O)[C@H](CC1CCCCC1)NC(C)=O)C(=O)N(C)CCc1ccccc1 [Compound P83, Ac-Cha-Arg-Tic-Nle-N(Me)CH2CH2Ph] (Ac-[Cha]R[Tic][Nle]-{N(Me)CH2CH2Ph})",1300 nM,11000,69,85,93,58,,,98,100,24,Immunsupressive assays DR14-LN (Max) % Inhibition [9]: 100%; IC50 [9]: 13 µM
"CSCC[C@H](NC(=O)[C@@H]1Cc2ccccc2CN1C(=O)[C@H](CCCNC(=N)N)NC(=O)[C@H](CC1CCCCC1)NC(C)=O)C(=O)N(CCOCCO)CCc1ccccc1 [Compound P96, Ac-Cha-Arg-Tic-Met-N(CH2CH2Ph)CH2CH2OCH2CH2OH] (Ac-[Cha]R[Tic]M-X4)",1000 nM,,,,,,,,106,91,5.9,"IC50 ([2]; Protein binding IC50 (nM) 0404, 0404): 7400 nM; Stability (Arbitrary units) Rat 6 h ([3]; rat plasma, 6 h): 83 Arbitrary units; Stability (Arbitrary units) Rat 24 h ([3]; rat plasma, 24 h): 45 Arbitrary units; Stability (Arbitrary units) Mouse 6 h ([4]; mouse plasma, 6 h): 108 Arbitrary units; Stability (Arbitrary units) Mouse 24 h ([4]; mouse plasma, 24 h): 82 Arbitrary units; Stability (Arbitrary units) Human 6 h ([5]; human plasma, 6 h): 117 Arbitrary units; Stability (Arbitrary units) Human 24 h ([5]; human plasma, 24 h): 64 Arbitrary units"
"CSCC[C@H](NC(=O)[C@@H]1Cc2ccccc2CN1C(=O)[C@H](CCCNC(=N)N)NC(=O)[C@H](CC1CCCCC1)NC(C)=O)C(=O)N(CCO)CCc1ccccc1 [Compound P85, Ac-Cha-Arg-Tic-Met-N(CH2CH2OH)CH2CH2Ph] (Ac-[Cha]R[Tic]M-X6)",1800 nM,31000,111,71,98,57,,129,104,108,13,
"CSCC[C@H](NC(=O)[C@@H]1Cc2ccccc2CN1C(=O)[C@H](CCCNC(=N)N)NC(=O)[C@H](CC1CCCCC1)NC(C)=O)C(=O)N(CCOCCO)Cc1ccccc1 [Compound P99, Ac-Cha-Arg-Tic-Met-N(Bn)CH2CH2OCH2CH2OH] (Ac-[Cha]R[Tic]M-X2)",690 nM and 560 nM,1900,80,62,71,13,104,,107,106,,Immunsupressive assays DR14-LN (Max) % Inhibition [9]: 100%; IC50 [9]: 105 µM
"CSCC[C@H](NC(=O)[C@H](C)NC(=O)[C@H](CCCN=C(N)N)NC(=O)[C@H](CC1CCCCC1)NC(C)=O)C(=O)N[C@@H](C)C(=O)N[C@@H](CO)C(=O)N[C@@H](CC(C)C)C(N)=O [Compound P3, Ac-Cha-RAMASL-NH2, reference compound] (Ac-[Cha]RAMASL-NH2)",,,,,,,,,,,,"degradation by Cathepsin B1 [7, 11]: completely degraded"
CC[C@H](C)[C@H](NC(=O)CNC(=O)[C@@H](NC(=O)[C@H](Cc1ccccc1)NC(=O)[C@H](CC(C)C)NC(=O)[C@H](CO)NC(=O)[C@H](CC(N)=O)NC(=O)[C@H](C)NC(=O)[C@H](CCCCN)NC(=O)[C@@H](NC(=O)[C@H](Cc1ccc(O)cc1)NC(=O)[C@@H](N)CCC(N)=O)[C@@H](C)CC)[C@@H](C)CC)C(=O)N[C@H](C(=O)N[C@@H](CCC(=O)O)C(=O)N[C@@H](CC(C)C)C(=O)N[C@@H](CCCCN)C(=O)O)[C@@H](C)O [reference compound] (H-QYIKANSLFIGITELK-OH; N-terminus and C-terminus assumed),,,,,,,,,,,,"degradation by Cathepsin D [6, 11]: completely degraded"
